Values of other authors as cited in US20110236538A1, “CHITIN DERIVATIVE AND NATURAL SWEETENER CONJUGATE FOR CONTROLLING INGESTED FAT IN HUMANS AND HAVING SWEETENING PROPERTIES” (priority 2008, published 2011).

Settings: successive lines = successive pKa of di- and trivalent acids

For `O=C(O)C(Cl)(Cl)Cl` [Trichloroacetic], the “pKa (25° C.)” value is given as 0.70.
